Reference: publication PMC11129975, “A first-in-human phase I study of TAS-117, an allosteric AKT inhibitor, in patients with advanced solid tumors” (Cancer Chemotherapy and Pharmacology, 2024)

Experiment: Phase I safety: adverse events, adverse drug reactions, DLTs in patients with advanced solid tumors
Format: in vivo, human
Excerpt: This was a phase I, open-label, non-randomized, dose-escalating first-in-human study to evaluate the safety, pharmacokinetics, antitumor activity, pharmacodynamics, and pharmacogenomics of TAS-117 in patients with advanced solid tumors. The study had three phases: a dose escalation phase (DEP), a regimen modification phase (RMP), and a safety assessment phase (SAP). The treatment cycle on each regimen lasted 21 days. The DEP used an accelerated titration and 3 + 3 design. TAS-117 was administered orally once daily (QD) on an empty stomach (1 h before or 2 h after a meal). Dosing was determined based on a 4-week repeated oral-dose toxicology study in monkeys (data on file, Taiho Pharmaceutical Co., Ltd.); the highest non-severely toxic dose was 1.2 mg/kg/day, which was converted to 3.84 mg/body/day, or 2.4 mg/m^2. Therefore, the starting dose was determined to be ≤ 2.4 mg/m^2. At dose level 1, TAS-117 was administered at 2 mg QD (Day − 2), and the dose was increased to 4 mg QD after 2 days (Day 1). The RMP was conducted according to a 3 + 3 design. During this phase, the dose regimen was changed from QD administration to intermittent dosing of daily TAS-117 with 4 days on/3 days off. TAS-117 was administered on an empty stomach. Dose-limiting toxicities (DLTs) were evaluated in Cycle 1 of the DEP and RMP. […] The RD and regimen for the SAP were determined based on the safety, pharmacokinetics, pharmacodynamics, and antitumor activity profile determined in the DEP and RMP. During the SAP, the safety and preliminary efficacy profiles of TAS-117 were assessed at the RD and recommended regimen. Three cohorts were included in this assessment. Cohort 1 included patients with endometrial cancer with a PIK3CA mutation; cohort 2 included patients with endometrial cancer with an AKT1 mutation, AKT1 amplification, or AKT2 amplification; and cohort 3 included patients with ovarian clear cell carcinoma.
The primary endpoints were the proportion of patients who experienced DLTs in Cycle 1 of the DEP and RMP and the incidence of adverse events (AEs) and adverse drug reactions (ADRs) in the SAP. AEs and ADRs were coded using the Medical Dictionary for Regulatory Activities (MedDRA; version 24.1) and graded according to the National Cancer Institute Common Terminology Criteria for Adverse Events (CTCAE; version 4.03). Secondary endpoints were pharmacokinetic findings, changes in the ratio of phosphorylated PRAS40 (pPRAS40)/total PRAS40 from baseline, efficacy, and pharmacogenomics findings.

C[C@]1(O)C[C@@](N)(c2ccc(-c3nc4n(c3-c3ccccc3)COc3ccncc3-4)cc2)C1 [TAS-117]
Grade 3 maculopapular rash with treatment interruption and/or dose reduction (RMP dose level 5 (32 mg), Cycle 1 and Cycle 2): two of three patients | DLT (grade 3 maculopapular rash) during Cycle 1 (RMP dose level 5 (32 mg), intermittent administration): one of the three patients | Adverse drug reactions: ALT increased (RMP n = 10, All grade): 0 (0.0) n (%) | Adverse drug reactions: AST increased (RMP n = 10, All grade): 1 (10.0) n (%) | Adverse drug reactions: Any events (RMP n = 10, All grade): 10 (100.0) n (%) | Adverse drug reactions: Blood AP increased (RMP n = 10, All grade): 1 (10.0) n (%) | Adverse drug reactions: Decreased appetite (RMP n = 10, All grade): 5 (50.0) n (%) | Adverse drug reactions: Diarrhea (RMP n = 10, All grade): 2 (20.0) n (%) | Adverse drug reactions: Dry skin (RMP n = 10, All grade): 1 (10.0) n (%) | Adverse drug reactions: GGT increased (RMP n = 10, All grade): 2 (20.0) n (%) | Adverse drug reactions: GI disorders (RMP n = 10, All grade): 8 (80.0) n (%) | Adverse drug reactions: General disorders and administration site conditions (RMP n = 10, All grade): 5 (50.0) n (%) | Adverse drug reactions: Hyperglycemia (RMP n = 10, All grade): 3 (30.0) n (%) | Adverse drug reactions: Investigations (RMP n = 10, All grade): 6 (60.0) n (%) | Adverse drug reactions: Metabolism and nutrition disorders (RMP n = 10, All grade): 5 (50.0) n (%) | Adverse drug reactions: Nausea (RMP n = 10, All grade): 3 (30.0) n (%) | Adverse drug reactions: Neutrophil count decreased (RMP n = 10, All grade): 3 (30.0) n (%) | Adverse drug reactions: Pruritus (RMP n = 10, All grade): 4 (40.0) n (%) | Adverse drug reactions: Pyrexia (RMP n = 10, All grade): 4 (40.0) n (%) | Adverse drug reactions: Rash maculo-papular (RMP n = 10, All grade): 9 (90.0) n (%) | Adverse drug reactions: Skin and SC tissue disorders (RMP n = 10, All grade): 9 (90.0) n (%) | Adverse drug reactions: Stomatitis (RMP n = 10, All grade): 8 (80.0) n (%) | Adverse drug reactions: Vomiting (RMP n = 10, All grade): 1 (10.0) n (%) | Adverse drug reactions: WBC count decreased (RMP n = 10, All grade): 3 (30.0) n (%) | Adverse events: ALT increased (RMP n = 10, All grade): 1 (10.0) n (%) | Adverse events: AST increased (RMP n = 10, All grade): 2 (20.0) n (%) | Adverse events: Any events (RMP n = 10, All grade): 10 (100.0) n (%) | Adverse events: Blood AP increased (RMP n = 10, All grade): 1 (10.0) n (%) | Adverse events: Decreased appetite (RMP n = 10, All grade): 7 (70.0) n (%) | Adverse events: Diarrhea (RMP n = 10, All grade): 3 (30.0) n (%) | Adverse events: Dry skin (RMP n = 10, All grade): 1 (10.0) n (%) | Adverse events: GGT increased (RMP n = 10, All grade): 2 (20.0) n (%) | Adverse events: GI disorders (RMP n = 10, All grade): 9 (90.0) n (%) | Adverse events: General disorders and administration site conditions (RMP n = 10, All grade): 9 (90.0) n (%) | Adverse events: Hyperglycemia (RMP n = 10, All grade): 3 (30.0) n (%) | Adverse events: Investigations (RMP n = 10, All grade): 7 (70.0) n (%) | Adverse events: Metabolism and nutrition disorders (RMP n = 10, All grade): 7 (70.0) n (%) | Adverse events: Nausea (RMP n = 10, All grade): 4 (40.0) n (%) | Adverse events: Neutrophil count decreased (RMP n = 10, All grade): 3 (30.0) n (%) | Adverse events: Pruritus (RMP n = 10, All grade): 4 (40.0) n (%) | Adverse events: Pyrexia (RMP n = 10, All grade): 6 (60.0) n (%) | Adverse events: Rash maculo-papular (RMP n = 10, All grade): 9 (90.0) n (%) | Adverse events: Skin and SC tissue disorders (RMP n = 10, All grade): 9 (90.0) n (%) | Adverse events: Stomatitis (RMP n = 10, All grade): 8 (80.0) n (%) | Adverse events: Vomiting (RMP n = 10, All grade): 2 (20.0) n (%) | Adverse events: WBC count decreased (RMP n = 10, All grade): 3 (30.0) n (%) | Adverse drug reactions: ALT increased (RMP n = 10, ≥ Grade 3): 0 (0.0) n (%) | Adverse drug reactions: AST increased (RMP n = 10, ≥ Grade 3): 0 (0.0) n (%) | Adverse drug reactions: Any events (RMP n = 10, ≥ Grade 3): 6 (60.0) n (%) | Adverse drug reactions: Blood AP increased (RMP n = 10, ≥ Grade 3): 0 (0.0) n (%) | Adverse drug reactions: Decreased appetite (RMP n = 10, ≥ Grade 3): 0 (0.0) n (%) | Adverse drug reactions: Diarrhea (RMP n = 10, ≥ Grade 3): 0 (0.0) n (%) | Adverse drug reactions: Dry skin (RMP n = 10, ≥ Grade 3): 0 (0.0) n (%) | Adverse drug reactions: GGT increased (RMP n = 10, ≥ Grade 3): 1 (10.0) n (%) | Adverse drug reactions: GI disorders (RMP n = 10, ≥ Grade 3): 0 (0.0) n (%) | Adverse drug reactions: General disorders and administration site conditions (RMP n = 10, ≥ Grade 3): 0 (0.0) n (%) | Adverse drug reactions: Hyperglycemia (RMP n = 10, ≥ Grade 3): 2 (20.0) n (%) | Adverse drug reactions: Investigations (RMP n = 10, ≥ Grade 3): 3 (30.0) n (%) | Adverse drug reactions: Metabolism and nutrition disorders (RMP n = 10, ≥ Grade 3): 2 (20.0) n (%) | Adverse drug reactions: Nausea (RMP n = 10, ≥ Grade 3): 0 (0.0) n (%) | Adverse drug reactions: Neutrophil count decreased (RMP n = 10, ≥ Grade 3): 0 (0.0) n (%) | Adverse drug reactions: Pruritus (RMP n = 10, ≥ Grade 3): 0 (0.0) n (%) | Adverse drug reactions: Pyrexia (RMP n = 10, ≥ Grade 3): 0 (0.0) n (%) | Adverse drug reactions: Rash maculo-papular (RMP n = 10, ≥ Grade 3): 3 (30.0) n (%) | Adverse drug reactions: Skin and SC tissue disorders (RMP n = 10, ≥ Grade 3): 3 (30.0) n (%) | Adverse drug reactions: Stomatitis (RMP n = 10, ≥ Grade 3): 0 (0.0) n (%) | Adverse drug reactions: Vomiting (RMP n = 10, ≥ Grade 3): 0 (0.0) n (%) | Adverse drug reactions: WBC count decreased (RMP n = 10, ≥ Grade 3): 2 (20.0) n (%) | Adverse events: ALT increased (RMP n = 10, ≥ Grade 3): 0 (0.0) n (%) | Adverse events: AST increased (RMP n = 10, ≥ Grade 3): 0 (0.0) n (%) | Adverse events: Any events (RMP n = 10, ≥ Grade 3): 7 (70.0) n (%) | Adverse events: Blood AP increased (RMP n = 10, ≥ Grade 3): 0 (0.0) n (%) | Adverse events: Decreased appetite (RMP n = 10, ≥ Grade 3): 0 (0.0) n (%) | Adverse events: Diarrhea (RMP n = 10, ≥ Grade 3): 1 (10.0) n (%) | Adverse events: Dry skin (RMP n = 10, ≥ Grade 3): 0 (0.0) n (%) | Adverse events: GGT increased (RMP n = 10, ≥ Grade 3): 1 (10.0) n (%) | Adverse events: GI disorders (RMP n = 10, ≥ Grade 3): 2 (20.0) n (%) | Adverse events: General disorders and administration site conditions (RMP n = 10, ≥ Grade 3): 0 (0.0) n (%) | Adverse events: Hyperglycemia (RMP n = 10, ≥ Grade 3): 2 (20.0) n (%) | Adverse events: Investigations (RMP n = 10, ≥ Grade 3): 3 (30.0) n (%) | Adverse events: Metabolism and nutrition disorders (RMP n = 10, ≥ Grade 3): 2 (20.0) n (%) | Adverse events: Nausea (RMP n = 10, ≥ Grade 3): 0 (0.0) n (%) | Adverse events: Neutrophil count decreased (RMP n = 10, ≥ Grade 3): 0 (0.0) n (%) | Adverse events: Pruritus (RMP n = 10, ≥ Grade 3): 0 (0.0) n (%) | Adverse events: Pyrexia (RMP n = 10, ≥ Grade 3): 0 (0.0) n (%) | Adverse events: Rash maculo-papular (RMP n = 10, ≥ Grade 3): 3 (30.0) n (%) | Adverse events: Skin and SC tissue disorders (RMP n = 10, ≥ Grade 3): 3 (30.0) n (%) | Adverse events: Stomatitis (RMP n = 10, ≥ Grade 3): 0 (0.0) n (%) | Adverse events: Vomiting (RMP n = 10, ≥ Grade 3): 0 (0.0) n (%) | Adverse events: WBC count decreased (RMP n = 10, ≥ Grade 3): 2 (20.0) n (%) | Adverse drug reactions: ALT increased (SAP n = 43, All grade): 6 (14.0) n (%)
